According to patent US9957263B2, “Bromodomain inhibitors” (AbbVie Inc., priority 2013, dated 2018):

Tests used:
[1] = system: breast cancer cell line MX-1; assay: MX-1 cell line proliferation assay, Method A; type: cell-based; settings: MX-1 cells, 96-well, 72 hours, Cell Titer Glo; read-out: Cellular proliferation: EC50 Method A
Procedure: (§1) The impact of compounds of the Examples on cancer cell proliferation was determined using the breast cancer cell line MX-1 (ATCC) in a 3-day proliferation assay and the data are reported in Table 1.
For compound testing, MX-1 cells were plated in 96-well black bottom plates at a density of 5000 cells/well in 90 μL of culture media and incubated at 370 overnight to allow cell adhesion and spreading. Compound dilution series were prepared in DMSO via a 3-fold serial dilution from 3 mM to 0.1 μM. The DMSO dilution series were then diluted 1:100 in phosphate buffered saline, and 10 μL of the resulted solution were added to the appropriate wells of the MX-1 cell plate. The final compound concentrations in the wells were 3, 1, 0.3, 0.1, 0.03, 0.01, 0.003, 0.001, 0.0003 and 0.0001 μM.
(§2) Luminescence readings from the Cell Titer Glo assay were normalized to the DMSO treated cells and analyzed using the GraphPad Prism software with sigmoidal curve fitting to obtain EC50s. The minimum significant ratio (MSR) was determined to evaluate assay reproducibility (Eastwood et al., (2006) J Biomol Screen, 11: 253-261).

[2] = system: breast cancer cell line MX-1; assay: MX-1 cell line proliferation assay, Method B; type: cell-based; settings: Homo sapiens, MX1; MX-1 cells, 384-well, 72 hours, Cell Titer Glo; read-out: Cellular proliferation: EC50 Method B
Procedure: as §1
Method B: MX-1 cells were maintained in RPMI 1640 medium (Sigma) supplemented with 10% FBS at 37 C.° and an atmosphere of 5% CO2. For compound testing, MX-1 cells were plated in 384-well white with clear, flat bottom plates at a density of 750 cells/well in 25 μL of culture media and incubated at 370 overnight to allow cell adhesion and spreading. Ten point compound dilution series were prepared in DMSO via a 3-fold serial dilution from either […] or 1 μM stock and added directly to the appropriate wells of the MX-1 cell plate by an ECHO liquid handler (Labcyte). The final compound concentrations in the wells were 10, 3.25, 1, 0.25, 0.124, 0.040, 0.0124, 0.0031, 0.0015 and 0.0005 μM or 1, 0.33, 0.1, 0.025, 0.0124, 0.004, 0.0012, 0.0003, 0.00015, 0.00005 μM, depending on the concentration of the compound stock solution.
as §2, with “Accelrys Assay Explorer 3.3” for “the GraphPad Prism”, “ECsos.” for “EC50s.”, “253-261). The overall MSR was determined to be 3.3 and a moving MSR (last six run MSR overtime) has averaged” for “253-261).”

BRD4 (BDII_E352-M457) = BRD4 (BDII_E352-M457) (Homo sapiens (Human), UniProt O60885); assay: TR-FRET bromodomain binding assay, BRD4 second bromodomain; settings: His-tagged BD2, Alexa647-labeled probe 30 nM
In short: (§3)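 Competition of compound (50 μM-0.85 nM, 2% DMSO) against an Alexa647-labelled BET-inhibitor probe, 100 nM for BDI or 30 nM for BDII, on 8 nM His-BRD4 bromodomain detected by 1 nM Eu-anti-His; 20 mM sodium phosphate pH 6.0, 1 h room temperature. Normalised to unlabelled-probe controls; IC50 converted to Ki.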

BRD4 (BDI_K57-E168) = BRD4 (BDI_K57-E168) (Homo sapiens (Human), UniProt O60885); assay: TR-FRET bromodomain binding assay, BRD4 first bromodomain; settings: His-tagged BD1, Alexa647-labeled probe 100 nM
In short: as §3

[3] = system: LPS induced IL-6 (Interleukin-6) production; assay: LPS (lipopolysaccharide) induced IL-6 production mouse assay; type: in vivo; settings: CD-1 female mice, oral administration one hour before LPS 2.5 mg/kg intraperitoneal, serum 2 hours after LPS; p value less than 0.05
Procedure: Example 2 was assayed for its ability to inhibit LPS (lipopolysaccharide) induced IL-6 (Interleukin-6) production in mice. CD-1 female mice (Charles River Laboratories, 5 per group) received an intraperitoneal challenge of lipopolysaccharide (2.5 mg/kg, L2630 E. coli 0111:B4) one hour after oral administration of compound or compound vehicle. Mice were euthanized 2 hours after lipopolysaccharide injection, blood was removed by cardiac puncture, and then the serum harvested from the blood samples was frozen at −80 OC. On the day of the assay the serum samples were brought to room temperature and then diluted 1:20 in phosphate-buffered saline containing 2% bovine serum albumin. Interleukin-6 measurements were performed using a cytokine assay from Meso Scale Discovery (Gaithersburg, Md.) for mouse serum analysis according to the manufacturer's protocol and read on a SECTOR Imager 6000 (Meso Scale Discovery, Gaithersburg, Md.) instrument. Statistical analysis was performed using Prism software (version 5.0) incorporating Dunnett's one way ANOVA. The IL-6 mean and standard deviation of the group of vehicle treated animals were compared with the IL-6 mean and standard deviation of the group treated with drug. A p value <0.05 means that there is less than a 5% probability that the mean values in the two groups are equal.

SMILES | EC50 [1] [nM] | EC50 [2] [nM] | Ki (BRD4 (BDII_E352-M457)) [nM] | Ki (BRD4 (BDI_K57-E168)) [nM] | inhibition of LPS induced IL-6 production [3] [%]
Cn1cc(-c2cc(S(C)(=O)=O)ccc2NC2CCN(S(=O)(=O)/C=C/c3ccccc3)CC2)c2cc[nH]c2c1=O [Example 102] | 67.3 | – | – | – | –
COc1ccc(S(=O)(=O)Nc2cccc(Oc3ccc(S(C)(=O)=O)cc3-c3cn(C)c(=O)c4[nH]ccc34)c2)cc1OC [Example 53] | 144 | – | – | – | –
CCNC(=O)c1cc2c(-c3ccc(C(=O)N(CCN(C)C)c4ncccn4)cc3Oc3c(C)cccc3C)cn(C)c(=O)c2[nH]1 [Example 174, 4-[4-{[2-(dimethylamino)ethyl](pyrimidin-2-yl)carbamoyl}-2-(2,6-dimethylphenoxy)phenyl]-N-ethyl-6-methyl-7-oxo-6,7-dihydro-1H-pyrrolo[2,3-c]pyridine-2-carboxamide] | – | 1610 | 13.3 | 2300 | –
CCS(=O)(=O)Nc1cc(-c2cn(C)c(=O)c3[nH]ccc23)c(Oc2ccc(F)cc2F)cc1CN(C)C [Example 2, N-[4-(2,4-difluorophenoxy)-2-[(dimethylamino)methyl]-5-(6-methyl-7-oxo-6,7-dihydro-1H-pyrrolo[2,3-c]pyridin-4-yl)phenyl]ethanesulfonamide] | – | – | 4 | 57 | 45
CCNC(=O)c1cc2c(-c3ccc(C(=O)N(CCN(C)C)c4ccccc4)cc3Oc3c(C)cccc3C)cn(C)c(=O)c2[nH]1 [Example 179, 4-[4-{[2-(dimethylamino)ethyl](phenyl)carbamoyl}-2-(2,6-dimethylphenoxy)phenyl]-N-ethyl-6-methyl-7-oxo-6,7-dihydro-1H-pyrrolo[2,3-c]pyridine-2-carboxamide] | – | 991 | 8.24 | 1580 | –
